The term inhibition denotes the change of the read-out against control, counted positive when it falls. As a reminder, the IC50 is the concentration that gives 50% inhibition.

The values that follow come from publication PMC9959265, “Permethrin as a Potential Furin Inhibitor through a Novel Non-Competitive Allosteric Inhibition” (Molecules, 2023).

One series concerns Hep-G2 cells. The series can be described thus: Cellular cytotoxicity (CCK8), Hep-G2. The series is classed as cell-based, human. To be noted: Hep-G2 (high furin expression), 24 or 48 h. Here is the method: (§1) Furin is highly expressed in liver cancer cells and has specific effects on hepatocellular carcinoma. Therefore, human hepatocellular carcinoma cells Hep-G2 were selected as experimental cells, cervical carcinoma cells HeLa with similar furin expression in Hep-G2 were selected as control, and human permanent hepatocytes L-02 were selected as negative control. DMEM was used for HeLa, and 1640 medium was used for Hep-G2 and L-02. After incubation for 24 h with 100 μL complete medium in 96-well plates with 8000 cells per well, the medium was aspirated, 100 μL serum-free medium containing a concentration gradient of the compound was added and the samples were incubated. After 24 or 48 h the drug-containing medium was aspirated and 100 μL medium solution containing 10% CCK8 was added, subsequently, the absorbance was measured at 450 nm using a microplate reader after 1 h of incubation.

The test system of the next series is L-02 cells. Description: Cellular cytotoxicity (CCK8), L-02. The series is classed as cell-based, human. To be noted: L-02 normal liver cells (low furin expression), 24 or 48 h. Here is the method: as §1
Series [1] addresses T1, furin (Homo sapiens, UniProt P09958). The series can be described thus: Furin activity / inhibitor screening assay with Boc-R-V-R-R-AMC substrate. In kind it is biochemical. Set-up: His tag; host or cells: E. coli BL21 (DE3). Here is the method: Boc-Arg-Val-Arg-Arg-AMC (Boc-R-V-R-R-AMC) was used as a substrate for the detection of furin. It carries an AMC ([…]) moiety that fluoresces at an excitation wavelength of 370 nm and an emission wavelength of 460 nm.
The reaction was then incubated for 90 min at 37 °C, supplemented with 40 μM substrate, quenched using 1% formic acid and the enzyme activity was monitored using a Thermo Scientific Varioskan Flash Multi-Mode Microplate Reader.

For another series, the system named is trypsin. Description: Inhibition effect on trypsin (control protease). The series is classed as biochemical. To be noted: Figure S1E.
In another series the test system is HeLa cells. The series can be described thus: Cellular cytotoxicity (CCK8), HeLa. In kind it is cell-based. To be noted: HeLa (high furin expression), 24 or 48 h. Here is the method:
as §1

The target in series [2] is T1, furin.
Method: For the measurement of enzymatic kinetics and inhibition kinetics, the substrate concentration gradients were set to 0 μM, 2 μM, 5 μM, 10 μM, 20 μM, 40 μM, 60 μM, 80 μM, 100 μM, 120 μM, and the compound concentration gradients to 0 μM, 25 μM, 50 μM, 100 μM. Furin was added to 100 mM HEPES assay system buffer (pH 6.0, containing 0.5% Triton X-100 and 5 mM CaCl2), followed by different concentrations of the compounds to be tested, preincubated at 37 °C for 5 min. Different concentrations of the substrate were added; the sample was incubated at 37 °C for 35 min, and quenched with 1% formic acid. The initial rate of the enzymatic reaction of furin was tested and the curve was plotted.

T1 sequence (P09958 108-574 limits assumed): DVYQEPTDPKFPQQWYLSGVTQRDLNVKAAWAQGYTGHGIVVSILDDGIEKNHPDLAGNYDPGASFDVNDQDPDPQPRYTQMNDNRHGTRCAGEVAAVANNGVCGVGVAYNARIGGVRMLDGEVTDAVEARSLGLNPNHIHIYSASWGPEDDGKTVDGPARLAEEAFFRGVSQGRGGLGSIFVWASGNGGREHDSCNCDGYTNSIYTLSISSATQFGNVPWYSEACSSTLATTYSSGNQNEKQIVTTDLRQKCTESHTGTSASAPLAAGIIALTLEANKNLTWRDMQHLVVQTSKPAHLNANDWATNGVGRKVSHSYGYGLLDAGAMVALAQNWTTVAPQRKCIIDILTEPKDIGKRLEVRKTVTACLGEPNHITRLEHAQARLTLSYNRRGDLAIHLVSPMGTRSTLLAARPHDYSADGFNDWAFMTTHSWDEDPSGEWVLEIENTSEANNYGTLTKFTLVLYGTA

As for `CC1(C)C(C=C(Cl)Cl)C1C(=O)OCc1cccc(Oc2ccccc2)c1` (stereo not drawn) [YJJ-B0887, permethrin], the figures for the cytotoxic effect entry in the series on Hep-G2 cells, in the series with L-02 cells and in the series with HeLa cells were “stronger cytotoxic effect”, “much weaker” and “higher cytotoxic effect”, respectively. The inhibition at 50 µM at furin [1] (50 μM compound, read-out: Inhibition Rate (50 μM)) stood at 55.9%. This molecule registered an IC50 against furin [1] (furin, 40 μM Boc-R-V-R-R-AMC, pH 6.0, 37 °C) of 38.7 µM. For the same molecule, in the series on trypsin, the “inhibitory activity against trypsin” value is listed as “to neither enzyme, permethrin has inhibitory activity”. Further, the mode of inhibition result at furin [2] was “non-competitive inhibitor”. Moreover, the “Km of furin on addition of inhibitor” value on furin [2] (permethrin 0, 25, 50, 100 μM) was “does not change”. The “maximum reaction rate of furin on addition of inhibitor” value on furin [2] (permethrin 0, 25, 50, 100 μM) is “decreases”.
